Measurements taken from PubChem BioAssay (NCI).
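Cultured in 96-well plates, cells were exposed to test compound for 48 hours across five concentrations. At the TGI there is no net growth.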

Experiments:
Test in all cases: inhibition of tumour cell growth, NCI panel, 48 h
TK-10 renal = test system: TK-10 renal
MOLT-4 leukemia = test system: MOLT-4 leukemia
MCF7 breast = test system: MCF7 breast
NCI-H23 lung = test system: NCI-H23 lung
PC-3 prostate = test system: PC-3 prostate
ACHN renal = test system: ACHN renal
SNB-19 CNS = test system: SNB-19 CNS
M14 melanoma = test system: M14 melanoma
HOP-62 NSCLC = test system: HOP-62 NSCLC
OVCAR-5 ovarian = test system: OVCAR-5 ovarian
OVCAR-3 ovarian = test system: OVCAR-3 ovarian
SF-295 CNS = test system: SF-295 CNS
CCRF-CEM leukemia = test system: CCRF-CEM leukemia
HCT-116 colon = test system: HCT-116 colon
T-47D breast = test system: T-47D breast
MDA-N = test system: MDA-N
A498 renal = test system: A498 renal
SK-OV-3 ovarian = test system: SK-OV-3 ovarian
SK-MEL-28 melanoma = test system: SK-MEL-28 melanoma
U251 CNS = test system: U251 CNS
A549 NSCLC = test system: A549 NSCLC
CAKI-1 renal = test system: CAKI-1 renal
HCT-15 colon = test system: HCT-15 colon
NCI-H460 lung = test system: NCI-H460 lung
SNB-75 CNS = test system: SNB-75 CNS
SK-MEL-5 melanoma = test system: SK-MEL-5 melanoma
SK-MEL-2 melanoma = test system: SK-MEL-2 melanoma
SR leukemia = test system: SR leukemia
OVCAR-8 ovarian = test system: OVCAR-8 ovarian
RPMI-8226 leukemia = test system: RPMI-8226 leukemia
K-562 leukemia = test system: K-562 leukemia
COLO 205 colon = test system: COLO 205 colon
HS 578T breast = test system: HS 578T breast
NCI/ADR-RES ovarian = test system: NCI/ADR-RES ovarian
UACC-257 melanoma = test system: UACC-257 melanoma
NCI-H522 lung = test system: NCI-H522 lung
NCI-H226 lung = test system: NCI-H226 lung
HCC-2998 colon = test system: HCC-2998 colon
DU-145 prostate = test system: DU-145 prostate
HOP-92 NSCLC = test system: HOP-92 NSCLC
OVCAR-4 ovarian = test system: OVCAR-4 ovarian
HL-60(TB) leukemia = test system: HL-60(TB) leukemia
SW-620 colon = test system: SW-620 colon
HT29 colon = test system: HT29 colon
SN12C renal = test system: SN12C renal
IGROV1 ovarian = test system: IGROV1 ovarian
UO-31 renal = test system: UO-31 renal
LOX IMVI melanoma = test system: LOX IMVI melanoma
MDA-MB-231 breast = test system: MDA-MB-231 breast
KM12 colon = test system: KM12 colon
786-0 renal = test system: 786-0 renal
MDA-MB-435 = test system: MDA-MB-435
UACC-62 melanoma = test system: UACC-62 melanoma
SF-268 CNS = test system: SF-268 CNS
RXF 393 renal = test system: RXF 393 renal
SF-539 CNS = test system: SF-539 CNS
EKVX NSCLC = test system: EKVX NSCLC
BT-549 breast = test system: BT-549 breast
MALME-3M melanoma = test system: MALME-3M melanoma

In the case of `COP(=O)(OC)C(Cc1cn(C(C)=O)c2ccccc12)C(=O)O` (stereo not given), the TGI (TK-10 renal) is reported as > 100 µM, the TGI (MOLT-4 leukemia) is reported as > 100 µM and the TGI (MCF7 breast) is reported as > 100 µM. For the same molecule, the TGI (NCI-H23 lung) was > 100 µM, the TGI (PC-3 prostate) was > 100 µM and the TGI (ACHN renal) was > 100 µM. For the same molecule, the TGI (SNB-19 CNS) was > 100 µM, the TGI (M14 melanoma) was > 100 µM and the TGI (HOP-62 NSCLC) was > 100 µM. For the same molecule, the TGI (OVCAR-5 ovarian) was > 100 µM, the TGI (OVCAR-3 ovarian) was > 100 µM and the TGI (SF-295 CNS) was > 100 µM. The TGI (CCRF-CEM leukemia) was > 100 µM, the TGI (HCT-116 colon) was > 100 µM and the TGI (T-47D breast) was > 100 µM. For the same molecule, the TGI (MDA-N) was > 100 µM, the TGI (A498 renal) was > 100 µM and the TGI (SK-OV-3 ovarian) was > 100 µM. The TGI (SK-MEL-28 melanoma) was > 100 µM, the TGI (U251 CNS) was > 100 µM and the TGI (A549 NSCLC) was > 100 µM. For the same molecule, the TGI (CAKI-1 renal) was > 100 µM, the TGI (HCT-15 colon) was > 100 µM and the TGI (NCI-H460 lung) was > 100 µM. For the same molecule, the TGI (SNB-75 CNS) was > 100 µM, the TGI (SK-MEL-5 melanoma) was > 100 µM and the TGI (SK-MEL-2 melanoma) was > 100 µM. For the same molecule, the TGI (SR leukemia) was > 100 µM, the TGI (OVCAR-8 ovarian) was > 100 µM and the TGI (RPMI-8226 leukemia) was > 100 µM. The TGI (K-562 leukemia) was > 100 µM, the TGI (COLO 205 colon) was > 100 µM and the TGI (HS 578T breast) was > 100 µM. For the same molecule, the TGI (NCI/ADR-RES ovarian) was > 100 µM, the TGI (UACC-257 melanoma) was > 100 µM and the TGI (NCI-H522 lung) was > 100 µM. The TGI (NCI-H226 lung) was > 100 µM, the TGI (HCC-2998 colon) was > 100 µM and the TGI (DU-145 prostate) was > 100 µM. For the same molecule, the TGI (HOP-92 NSCLC) was > 100 µM, the TGI (OVCAR-4 ovarian) was > 100 µM and the TGI (HL-60(TB) leukemia) was > 100 µM. For the same molecule, the TGI (SW-620 colon) was > 100 µM, the TGI (HT29 colon) was > 100 µM and the TGI (SN12C renal) was > 100 µM. The TGI (IGROV1 ovarian) was > 100 µM, the TGI (UO-31 renal) was > 100 µM and the TGI (LOX IMVI melanoma) was > 100 µM. The TGI (MDA-MB-231 breast) was > 100 µM.

In the case of `Cc1ccc(S(=O)(=O)n2c3ccc(Br)cc3c3nc4ccccc4nc32)cc1`, the TGI (TK-10 renal) is reported as > 100 µM, the TGI (KM12 colon) is reported as > 100 µM and the TGI (MOLT-4 leukemia) is reported as > 100 µM. For the same molecule, the TGI (NCI-H23 lung) was > 100 µM, the TGI (PC-3 prostate) was > 100 µM and the TGI (ACHN renal) was > 100 µM. For the same molecule, the TGI (SNB-19 CNS) was > 100 µM, the TGI (786-0 renal) was > 100 µM and the TGI (M14 melanoma) was > 100 µM. The TGI (HOP-62 NSCLC) was > 100 µM, the TGI (OVCAR-5 ovarian) was > 100 µM and the TGI (OVCAR-3 ovarian) was > 100 µM. The TGI (SF-295 CNS) was > 100 µM, the TGI (CCRF-CEM leukemia) was > 100 µM and the TGI (HCT-116 colon) was > 100 µM. The TGI (T-47D breast) was > 100 µM, the TGI (MDA-N) was > 100 µM and the TGI (A498 renal) was > 100 µM. The TGI (SK-MEL-28 melanoma) was > 100 µM, the TGI (U251 CNS) was > 100 µM and the TGI (A549 NSCLC) was > 100 µM. The TGI (CAKI-1 renal) was > 100 µM, the TGI (HCT-15 colon) was > 100 µM and the TGI (NCI-H460 lung) was > 100 µM. The TGI (SNB-75 CNS) was > 100 µM, the TGI (SK-MEL-5 melanoma) was > 100 µM and the TGI (SK-MEL-2 melanoma) was > 100 µM. The TGI (OVCAR-8 ovarian) was > 100 µM, the TGI (RPMI-8226 leukemia) was > 100 µM and the TGI (K-562 leukemia) was > 100 µM. The TGI (COLO 205 colon) was > 100 µM, the TGI (MDA-MB-435) was > 100 µM and the TGI (HS 578T breast) was > 100 µM. For the same molecule, the TGI (NCI/ADR-RES ovarian) was > 100 µM, the TGI (UACC-257 melanoma) was > 100 µM and the TGI (NCI-H522 lung) was > 100 µM. For the same molecule, the TGI (NCI-H226 lung) was 0.879 µM, the TGI (UACC-62 melanoma) was > 100 µM and the TGI (HCC-2998 colon) was > 100 µM. For the same molecule, the TGI (DU-145 prostate) was > 100 µM, the TGI (HOP-92 NSCLC) was > 100 µM and the TGI (OVCAR-4 ovarian) was > 100 µM. For the same molecule, the TGI (SF-268 CNS) was > 100 µM, the TGI (SW-620 colon) was > 100 µM and the TGI (RXF 393 renal) was > 100 µM. For the same molecule, the TGI (HT29 colon) was > 100 µM, the TGI (SN12C renal) was > 100 µM and the TGI (IGROV1 ovarian) was 57.8 µM. The TGI (UO-31 renal) was > 100 µM, the TGI (LOX IMVI melanoma) was > 100 µM and the TGI (MDA-MB-231 breast) was > 100 µM.

With `COC(C(=O)NN)c1ccccc1` (stereo not given) the TGI (TK-10 renal) was > 100 µM, the TGI (SF-539 CNS) was > 100 µM and the TGI (KM12 colon) was > 100 µM. The TGI (MOLT-4 leukemia) was > 100 µM, the TGI (MCF7 breast) was > 100 µM and the TGI (NCI-H23 lung) was > 100 µM. For the same molecule, the TGI (PC-3 prostate) was > 100 µM, the TGI (ACHN renal) was > 100 µM and the TGI (SNB-19 CNS) was > 100 µM. The TGI (786-0 renal) was > 100 µM, the TGI (M14 melanoma) was > 100 µM and the TGI (HOP-62 NSCLC) was > 100 µM. For the same molecule, the TGI (OVCAR-5 ovarian) was > 100 µM, the TGI (OVCAR-3 ovarian) was > 100 µM and the TGI (SF-295 CNS) was > 100 µM. The TGI (EKVX NSCLC) was > 100 µM, the TGI (MDA-N) was > 100 µM and the TGI (SK-OV-3 ovarian) was > 100 µM. The TGI (BT-549 breast) was > 100 µM, the TGI (SK-MEL-28 melanoma) was > 100 µM and the TGI (U251 CNS) was > 100 µM. For the same molecule, the TGI (A549 NSCLC) was > 100 µM, the TGI (CAKI-1 renal) was > 100 µM and the TGI (HCT-15 colon) was > 100 µM. For the same molecule, the TGI (NCI-H460 lung) was > 100 µM, the TGI (SNB-75 CNS) was > 100 µM and the TGI (SK-MEL-5 melanoma) was > 100 µM. The TGI (SK-MEL-2 melanoma) was > 100 µM, the TGI (SR leukemia) was > 100 µM and the TGI (OVCAR-8 ovarian) was > 100 µM. The TGI (RPMI-8226 leukemia) was > 100 µM, the TGI (K-562 leukemia) was > 100 µM and the TGI (MDA-MB-435) was > 100 µM. For the same molecule, the TGI (HS 578T breast) was > 100 µM, the TGI (MALME-3M melanoma) was > 100 µM and the TGI (NCI/ADR-RES ovarian) was > 100 µM. The TGI (UACC-257 melanoma) was > 100 µM, the TGI (NCI-H522 lung) was > 100 µM and the TGI (NCI-H226 lung) was > 100 µM. The TGI (UACC-62 melanoma) was > 100 µM, the TGI (HCC-2998 colon) was > 100 µM and the TGI (DU-145 prostate) was > 100 µM. For the same molecule, the TGI (HOP-92 NSCLC) was > 100 µM, the TGI (SF-268 CNS) was > 100 µM and the TGI (SW-620 colon) was > 100 µM. The TGI (RXF 393 renal) was > 100 µM, the TGI (HT29 colon) was > 100 µM and the TGI (SN12C renal) was > 100 µM. The TGI (IGROV1 ovarian) was > 100 µM and the TGI (UO-31 renal) was > 100 µM.
